Experiments:
Conditions in all cases: Compound concentration 100.0 nM
[1] = target: T1, Serine/threonine-protein kinase Chk1 (Homo sapiens) (UniProt O14757)
T1 sequence (whole entry): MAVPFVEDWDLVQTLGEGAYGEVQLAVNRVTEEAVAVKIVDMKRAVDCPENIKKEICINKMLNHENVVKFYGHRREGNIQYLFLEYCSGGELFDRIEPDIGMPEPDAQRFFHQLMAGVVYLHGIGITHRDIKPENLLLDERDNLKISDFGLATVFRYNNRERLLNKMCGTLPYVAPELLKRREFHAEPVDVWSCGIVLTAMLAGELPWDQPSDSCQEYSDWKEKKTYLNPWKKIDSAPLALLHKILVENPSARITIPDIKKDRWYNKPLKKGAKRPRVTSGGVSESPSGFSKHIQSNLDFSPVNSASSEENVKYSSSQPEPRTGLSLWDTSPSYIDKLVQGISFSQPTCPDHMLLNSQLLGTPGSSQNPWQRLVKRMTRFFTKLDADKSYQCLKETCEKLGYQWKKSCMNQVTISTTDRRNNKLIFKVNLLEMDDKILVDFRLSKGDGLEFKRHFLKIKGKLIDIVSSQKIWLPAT

[2] = target: SRSF protein kinase 1 (Homo sapiens) (UniProt Q96SB4)
[3] = target: Ephrin type-B receptor 6 (Homo sapiens) (UniProt O15197)
[4] = target: Receptor-type tyrosine-protein kinase FLT3 (Homo sapiens) (UniProt P36888)
[5] = target: Serine/threonine-protein kinase 38-like (Homo sapiens) (UniProt Q9Y2H1)
[6] = target: Mitogen-activated protein kinase kinase kinase 13 (Homo sapiens) (UniProt O43283)
[7] = target: MAP kinase-activated protein kinase 2 (Homo sapiens) (UniProt P49137)
[8] = test system: Hepatocyte growth factor receptor (Homo sapiens), P08581 [M1250T]
[9] = target: Phosphorylase b kinase gamma catalytic chain, skeletal muscle/heart isoform (Homo sapiens) (UniProt Q16816)
[10] = target: Tyrosine-protein kinase Fgr (Homo sapiens) (UniProt P09769)
[11] = target: Tyrosine-protein kinase BTK (Homo sapiens) (UniProt Q06187)
[12] = target: Myosin-IIIb (Homo sapiens) (UniProt Q8WXR4)
[13] = target: 5'-AMP-activated protein kinase catalytic subunit alpha-2 (Homo sapiens) (UniProt P54646)
[14] = target: Homeodomain-interacting protein kinase 3 (Homo sapiens) (UniProt Q9H422)
[15] = target: T2, Dual specificity mitogen-activated protein kinase kinase 6 (Homo sapiens) (UniProt P52564)
T2 sequence (whole entry): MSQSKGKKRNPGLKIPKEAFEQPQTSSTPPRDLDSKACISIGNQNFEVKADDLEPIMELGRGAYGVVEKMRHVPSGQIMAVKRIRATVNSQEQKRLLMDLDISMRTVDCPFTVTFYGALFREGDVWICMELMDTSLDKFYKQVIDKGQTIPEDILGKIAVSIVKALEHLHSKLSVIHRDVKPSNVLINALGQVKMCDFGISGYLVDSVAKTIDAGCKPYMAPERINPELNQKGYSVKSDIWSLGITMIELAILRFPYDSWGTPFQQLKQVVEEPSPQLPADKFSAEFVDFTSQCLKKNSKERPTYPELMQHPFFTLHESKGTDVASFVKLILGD

[16] = target: Serine/threonine-protein kinase MARK2 (Homo sapiens) (UniProt Q7KZI7)
[17] = test system: Receptor-type tyrosine-protein kinase FLT3 (Homo sapiens), P36888 [UNDEFINED MUTATION]
[18] = test system: Tyrosine-protein kinase ABL1 (Homo sapiens), P00519 [F317I]
[19] = target: Serine/threonine-protein kinase SBK1 (Homo sapiens) (UniProt Q52WX2)
[20] = target: Serine/threonine-protein kinase PAK 3 (Homo sapiens) (UniProt O75914)
[21] = target: SRSF protein kinase 3 (Homo sapiens) (UniProt Q9UPE1)
[22] = target: T3, Serine/threonine-protein kinase D2 (Homo sapiens) (UniProt Q9BZL6)
T3 sequence (whole entry): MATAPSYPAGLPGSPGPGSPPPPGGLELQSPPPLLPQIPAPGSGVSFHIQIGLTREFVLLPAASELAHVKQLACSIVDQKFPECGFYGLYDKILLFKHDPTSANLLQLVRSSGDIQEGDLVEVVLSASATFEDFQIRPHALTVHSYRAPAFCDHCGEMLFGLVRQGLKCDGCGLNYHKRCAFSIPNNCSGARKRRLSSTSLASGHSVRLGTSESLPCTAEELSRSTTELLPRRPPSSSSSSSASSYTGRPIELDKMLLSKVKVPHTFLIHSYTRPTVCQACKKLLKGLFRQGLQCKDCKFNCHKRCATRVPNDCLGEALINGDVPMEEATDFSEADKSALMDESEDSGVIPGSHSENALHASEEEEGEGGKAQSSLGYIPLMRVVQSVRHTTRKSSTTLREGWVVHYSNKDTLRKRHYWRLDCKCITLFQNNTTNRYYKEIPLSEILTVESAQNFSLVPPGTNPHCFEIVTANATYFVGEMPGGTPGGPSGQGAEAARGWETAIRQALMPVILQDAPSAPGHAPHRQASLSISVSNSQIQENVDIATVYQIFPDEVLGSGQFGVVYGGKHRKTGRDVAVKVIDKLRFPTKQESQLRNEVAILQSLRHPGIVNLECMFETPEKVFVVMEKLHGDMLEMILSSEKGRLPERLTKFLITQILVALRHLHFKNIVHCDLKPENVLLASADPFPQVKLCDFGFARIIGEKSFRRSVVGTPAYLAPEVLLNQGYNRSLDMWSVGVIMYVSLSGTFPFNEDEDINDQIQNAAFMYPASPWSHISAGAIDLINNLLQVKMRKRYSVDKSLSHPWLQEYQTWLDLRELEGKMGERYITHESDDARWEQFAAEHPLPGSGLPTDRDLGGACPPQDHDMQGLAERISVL

Measured: residual activity

Sequence of Tyrosine-protein kinase Fgr (Homo sapiens) (P09769 2-529 limits assumed): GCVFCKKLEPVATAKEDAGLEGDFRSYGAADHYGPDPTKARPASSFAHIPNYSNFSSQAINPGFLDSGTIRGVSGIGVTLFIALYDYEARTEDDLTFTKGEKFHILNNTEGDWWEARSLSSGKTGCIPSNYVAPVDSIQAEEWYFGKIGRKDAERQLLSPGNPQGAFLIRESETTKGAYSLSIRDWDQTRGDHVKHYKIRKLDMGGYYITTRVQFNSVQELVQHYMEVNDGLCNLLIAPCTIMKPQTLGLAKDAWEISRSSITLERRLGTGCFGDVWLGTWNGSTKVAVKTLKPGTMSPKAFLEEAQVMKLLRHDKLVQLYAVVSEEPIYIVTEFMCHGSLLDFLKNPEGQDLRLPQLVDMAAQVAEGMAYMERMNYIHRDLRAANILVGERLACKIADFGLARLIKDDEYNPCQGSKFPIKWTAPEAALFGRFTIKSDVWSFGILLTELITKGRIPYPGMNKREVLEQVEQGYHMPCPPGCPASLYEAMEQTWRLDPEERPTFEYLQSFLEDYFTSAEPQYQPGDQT
Sequence of Mitogen-activated protein kinase kinase kinase 13 (Homo sapiens) (O43283 whole entry): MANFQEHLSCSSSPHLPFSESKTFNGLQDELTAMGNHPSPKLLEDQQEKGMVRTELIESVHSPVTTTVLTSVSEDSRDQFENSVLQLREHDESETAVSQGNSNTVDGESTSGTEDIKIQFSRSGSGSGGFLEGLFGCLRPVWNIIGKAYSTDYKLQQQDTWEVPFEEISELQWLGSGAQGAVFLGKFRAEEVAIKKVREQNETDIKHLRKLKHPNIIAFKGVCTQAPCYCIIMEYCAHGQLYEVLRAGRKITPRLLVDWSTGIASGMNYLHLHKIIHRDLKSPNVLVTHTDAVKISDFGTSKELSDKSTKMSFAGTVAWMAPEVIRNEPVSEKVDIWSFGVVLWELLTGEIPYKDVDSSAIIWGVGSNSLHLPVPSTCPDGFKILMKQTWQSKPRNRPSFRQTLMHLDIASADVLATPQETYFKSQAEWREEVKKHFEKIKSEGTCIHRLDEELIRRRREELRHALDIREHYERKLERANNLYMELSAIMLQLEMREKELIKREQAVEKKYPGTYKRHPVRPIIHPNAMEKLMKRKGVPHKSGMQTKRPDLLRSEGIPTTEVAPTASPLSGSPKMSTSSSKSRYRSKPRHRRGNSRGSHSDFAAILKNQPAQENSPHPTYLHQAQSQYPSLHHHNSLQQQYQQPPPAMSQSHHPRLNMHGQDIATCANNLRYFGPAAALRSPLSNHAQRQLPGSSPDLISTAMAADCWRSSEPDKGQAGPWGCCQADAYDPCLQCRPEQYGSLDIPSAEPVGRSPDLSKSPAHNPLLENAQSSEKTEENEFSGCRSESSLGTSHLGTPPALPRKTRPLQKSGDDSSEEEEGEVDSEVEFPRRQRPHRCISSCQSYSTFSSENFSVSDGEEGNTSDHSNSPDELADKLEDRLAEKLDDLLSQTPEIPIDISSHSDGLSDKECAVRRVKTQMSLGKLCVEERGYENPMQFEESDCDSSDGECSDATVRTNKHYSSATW
Sequence of Tyrosine-protein kinase BTK (Homo sapiens) (Q06187 whole entry): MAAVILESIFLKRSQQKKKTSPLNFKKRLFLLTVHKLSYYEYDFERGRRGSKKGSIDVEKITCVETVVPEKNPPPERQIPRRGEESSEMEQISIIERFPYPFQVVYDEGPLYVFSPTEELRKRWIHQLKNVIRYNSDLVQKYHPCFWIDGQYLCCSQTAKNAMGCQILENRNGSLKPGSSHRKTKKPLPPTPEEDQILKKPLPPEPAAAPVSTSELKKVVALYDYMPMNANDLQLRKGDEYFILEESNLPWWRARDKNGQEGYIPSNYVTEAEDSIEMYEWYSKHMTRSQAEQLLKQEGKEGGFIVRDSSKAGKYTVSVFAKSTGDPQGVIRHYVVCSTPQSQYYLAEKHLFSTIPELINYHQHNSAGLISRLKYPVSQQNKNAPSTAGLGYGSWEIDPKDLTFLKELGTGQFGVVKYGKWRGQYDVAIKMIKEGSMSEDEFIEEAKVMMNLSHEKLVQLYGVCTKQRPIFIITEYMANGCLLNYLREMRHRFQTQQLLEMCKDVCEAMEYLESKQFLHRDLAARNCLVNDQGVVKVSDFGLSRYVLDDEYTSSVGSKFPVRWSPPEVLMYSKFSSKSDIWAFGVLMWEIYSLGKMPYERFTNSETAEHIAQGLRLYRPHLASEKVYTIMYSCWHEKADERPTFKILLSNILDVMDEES
Sequence of Serine/threonine-protein kinase MARK2 (Homo sapiens) (Q7KZI7 whole entry): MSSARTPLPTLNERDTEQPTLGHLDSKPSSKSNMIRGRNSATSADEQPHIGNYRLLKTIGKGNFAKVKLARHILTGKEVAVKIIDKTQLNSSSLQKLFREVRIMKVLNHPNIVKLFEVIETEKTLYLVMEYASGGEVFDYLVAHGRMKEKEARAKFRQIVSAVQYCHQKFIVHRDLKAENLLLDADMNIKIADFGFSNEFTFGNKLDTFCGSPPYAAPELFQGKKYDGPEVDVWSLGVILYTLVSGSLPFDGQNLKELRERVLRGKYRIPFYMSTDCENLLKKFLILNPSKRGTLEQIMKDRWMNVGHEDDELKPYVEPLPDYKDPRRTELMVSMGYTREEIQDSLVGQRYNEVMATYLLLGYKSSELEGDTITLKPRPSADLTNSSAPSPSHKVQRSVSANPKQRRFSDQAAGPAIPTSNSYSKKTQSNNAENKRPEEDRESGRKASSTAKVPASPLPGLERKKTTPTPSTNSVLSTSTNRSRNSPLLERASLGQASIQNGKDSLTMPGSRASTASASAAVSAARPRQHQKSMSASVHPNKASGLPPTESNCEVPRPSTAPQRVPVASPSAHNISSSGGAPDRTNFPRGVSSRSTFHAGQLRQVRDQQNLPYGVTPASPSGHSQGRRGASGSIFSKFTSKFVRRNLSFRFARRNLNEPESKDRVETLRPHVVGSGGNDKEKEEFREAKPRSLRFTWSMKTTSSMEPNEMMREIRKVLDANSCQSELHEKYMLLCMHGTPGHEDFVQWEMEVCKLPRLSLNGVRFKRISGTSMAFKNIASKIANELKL
Sequence of Serine/threonine-protein kinase SBK1 (Homo sapiens) (Q52WX2 whole entry): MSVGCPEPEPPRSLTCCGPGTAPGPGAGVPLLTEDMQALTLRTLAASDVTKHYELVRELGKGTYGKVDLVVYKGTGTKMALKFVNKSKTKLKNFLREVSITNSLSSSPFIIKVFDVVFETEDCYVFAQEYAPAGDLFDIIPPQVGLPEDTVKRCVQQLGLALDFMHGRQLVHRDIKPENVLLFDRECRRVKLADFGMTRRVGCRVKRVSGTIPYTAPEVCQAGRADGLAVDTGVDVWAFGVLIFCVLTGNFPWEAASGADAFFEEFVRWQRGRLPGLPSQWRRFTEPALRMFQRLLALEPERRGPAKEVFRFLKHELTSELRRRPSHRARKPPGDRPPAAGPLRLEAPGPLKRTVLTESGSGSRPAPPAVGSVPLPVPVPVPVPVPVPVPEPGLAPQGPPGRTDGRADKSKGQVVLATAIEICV
Sequence of Serine/threonine-protein kinase PAK 3 (Homo sapiens) (O75914 whole entry, looked up): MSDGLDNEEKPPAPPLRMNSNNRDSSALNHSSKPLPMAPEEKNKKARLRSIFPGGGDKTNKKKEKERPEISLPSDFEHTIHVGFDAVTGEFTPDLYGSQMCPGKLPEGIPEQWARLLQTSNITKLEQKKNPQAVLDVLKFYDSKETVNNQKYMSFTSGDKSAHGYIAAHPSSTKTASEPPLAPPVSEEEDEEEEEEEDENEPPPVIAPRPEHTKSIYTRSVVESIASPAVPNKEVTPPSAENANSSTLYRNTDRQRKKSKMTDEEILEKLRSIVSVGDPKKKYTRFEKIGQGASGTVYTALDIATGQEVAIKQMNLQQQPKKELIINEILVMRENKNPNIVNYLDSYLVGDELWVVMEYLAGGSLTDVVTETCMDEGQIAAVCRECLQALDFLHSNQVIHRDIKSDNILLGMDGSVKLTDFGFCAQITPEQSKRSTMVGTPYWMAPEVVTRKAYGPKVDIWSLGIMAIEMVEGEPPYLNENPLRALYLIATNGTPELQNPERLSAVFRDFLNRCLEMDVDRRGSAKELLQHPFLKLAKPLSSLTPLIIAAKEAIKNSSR
Sequence of Receptor-type tyrosine-protein kinase FLT3 (Homo sapiens), P36888 [UNDEFINED MUTATION] (P36888 whole entry, looked up, stated change not applied): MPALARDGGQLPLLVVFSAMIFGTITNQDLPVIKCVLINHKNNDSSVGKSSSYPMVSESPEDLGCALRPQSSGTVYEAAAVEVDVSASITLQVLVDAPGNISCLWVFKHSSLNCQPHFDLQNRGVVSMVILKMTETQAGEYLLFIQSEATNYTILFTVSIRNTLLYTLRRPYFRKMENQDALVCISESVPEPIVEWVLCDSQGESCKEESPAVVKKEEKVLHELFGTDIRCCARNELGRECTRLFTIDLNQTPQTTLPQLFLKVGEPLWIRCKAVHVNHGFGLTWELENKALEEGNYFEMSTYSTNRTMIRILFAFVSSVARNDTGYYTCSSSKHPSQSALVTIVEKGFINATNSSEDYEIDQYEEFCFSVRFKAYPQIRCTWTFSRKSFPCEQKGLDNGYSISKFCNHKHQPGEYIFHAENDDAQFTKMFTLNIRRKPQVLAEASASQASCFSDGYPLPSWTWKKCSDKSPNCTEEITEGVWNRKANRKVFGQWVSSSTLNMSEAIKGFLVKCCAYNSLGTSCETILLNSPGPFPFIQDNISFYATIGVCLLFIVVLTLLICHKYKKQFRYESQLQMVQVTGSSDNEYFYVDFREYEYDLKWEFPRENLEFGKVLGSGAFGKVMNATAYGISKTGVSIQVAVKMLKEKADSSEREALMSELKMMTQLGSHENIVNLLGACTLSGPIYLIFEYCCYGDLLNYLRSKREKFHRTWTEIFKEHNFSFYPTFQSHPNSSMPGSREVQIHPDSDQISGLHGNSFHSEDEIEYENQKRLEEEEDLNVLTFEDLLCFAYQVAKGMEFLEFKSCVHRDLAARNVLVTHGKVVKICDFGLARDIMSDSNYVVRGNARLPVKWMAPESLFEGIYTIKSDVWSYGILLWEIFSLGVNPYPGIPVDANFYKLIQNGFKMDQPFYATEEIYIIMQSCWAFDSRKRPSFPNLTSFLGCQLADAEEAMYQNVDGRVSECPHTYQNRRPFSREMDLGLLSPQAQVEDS
Sequence of Receptor-type tyrosine-protein kinase FLT3 (Homo sapiens) (P36888 whole entry): as the sequence (P36888 whole entry, looked up, stated change not applied) above

Cn1cc(Cl)c2c(Oc3c(F)cc(Nc4cc(Cl)nc(N)n4)cc3F)ccnc21 [BAY-4900]
inactive: [1] 100% | [2] 85% | [3] 100% | [4] 100% | [5] 100% | [6] 99% | [7] 100% | [8] 100% | [9] 100% | [10] 100% | [11] 84% | [12] 57% | [13] 97% | [14] 80% | [15] 100% | [16] 100% | [17] 61% | [18] 89% | [19] 97% | [20] 100% | [21] 100% | [22] 91%

Cc1c[nH]c2nccc(Oc3c(F)cc(Nc4cc(Cl)nc(N)n4)cc3F)c12 [BAY-549]
inactive: [1] 100% | [2] 100% | [3] 96% | [4] 76% | [5] 87% | [6] 81% | [7] 100% | [8] 99% | [9] 100% | [10] 100% | [11] 96% | [12] 91% | [13] 89% | [14] 92% | [15] 99% | [16] 100% | [17] 54% | [18] 55% | [19] 94% | [20] 86% | [21] 100% | [22] 94%

From ChEMBL document CHEMBL4507274 (2021)
